Literature values in patent US8859603B2, “Method for solubilizing metronidazole” (Galderma S.A., priority 2004, dated 2014).

Conditions: no solubilizer

Cc1ncc([N+](=O)[O-])n1CCO [metronidazole, 1-(2-hydroxyethyl)-2-methyl-5-nitroimidazole]
intrinsic solubility of metronidazole in an aqueous phase: ~0.9 % (m/m)
